Assay results reported in PubChem BioAssay (NCI).
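Here, GI50 denotes the concentration required for 50% inhibition of growth. Definition used: TGI = concentration required for complete inhibition of growth.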

Key:
Experiment in all cases: NCI tumour cell line growth inhibition, 384-well format
LOX IMVI melanoma = test system: LOX IMVI melanoma
NCI-H522 lung = test system: NCI-H522 lung
NCI/ADR-RES ovarian = test system: NCI/ADR-RES ovarian
786-0 renal = test system: 786-0 renal
HT29 colon = test system: HT29 colon
SR leukemia = test system: SR leukemia
SF-295 CNS = test system: SF-295 CNS
OVCAR-5 ovarian = test system: OVCAR-5 ovarian
SW-620 colon = test system: SW-620 colon
M14 melanoma = test system: M14 melanoma
T-47D breast = test system: T-47D breast
HCT-15 colon = test system: HCT-15 colon
SF-539 CNS = test system: SF-539 CNS
NCI-H460 NSCLC = test system: NCI-H460 NSCLC
A498 renal = test system: A498 renal
HL-60(TB) leukemia = test system: HL-60(TB) leukemia
MOLT-4 leukemia = test system: MOLT-4 leukemia
SK-OV-3 ovarian = test system: SK-OV-3 ovarian
K-562 leukemia = test system: K-562 leukemia
MCF7 breast = test system: MCF7 breast
CAKI-1 renal = test system: CAKI-1 renal
KM12 colon = test system: KM12 colon
IGROV1 ovarian = test system: IGROV1 ovarian
HOP-92 NSCLC = test system: HOP-92 NSCLC
OVCAR-4 ovarian = test system: OVCAR-4 ovarian
HCC-2998 colon = test system: HCC-2998 colon
OVCAR-8 ovarian = test system: OVCAR-8 ovarian
PC-3 prostate = test system: PC-3 prostate
MDA-MB-468 breast = test system: MDA-MB-468 breast
SN12C renal = test system: SN12C renal
ACHN renal = test system: ACHN renal
UACC-257 melanoma = test system: UACC-257 melanoma
MDA-MB-231 breast = test system: MDA-MB-231 breast
SK-MEL-5 melanoma = test system: SK-MEL-5 melanoma
CCRF-CEM leukemia = test system: CCRF-CEM leukemia
NCI-H322M lung = test system: NCI-H322M lung
DU-145 prostate = test system: DU-145 prostate
U251 glioblastoma = test system: U251 glioblastoma
COLO 205 colon = test system: COLO 205 colon
MDA-MB-435 melanoma = test system: MDA-MB-435 melanoma
UO-31 renal = test system: UO-31 renal
RPMI-8226 leukemia = test system: RPMI-8226 leukemia
SNB-19 CNS = test system: SNB-19 CNS
SK-MEL-2 melanoma = test system: SK-MEL-2 melanoma
A549 NSCLC = test system: A549 NSCLC
MALME-3M melanoma = test system: MALME-3M melanoma
SK-MEL-28 melanoma = test system: SK-MEL-28 melanoma
HCT-116 colon = test system: HCT-116 colon
OVCAR-3 ovarian = test system: OVCAR-3 ovarian
TK-10 renal = test system: TK-10 renal
NCI-H226 lung = test system: NCI-H226 lung
HOP-62 NSCLC = test system: HOP-62 NSCLC
NCI-H23 lung = test system: NCI-H23 lung
BT-549 breast = test system: BT-549 breast
UACC-62 melanoma = test system: UACC-62 melanoma
RXF 393 renal = test system: RXF 393 renal
SF-268 CNS = test system: SF-268 CNS

Q: For `c1ccc(Cn2c(-c3ccc(OC[C@H](C4CCNCC4)n4c(-c5ccccc5)nc5ccccc54)cc3)nc3ccccc32)cc1`, which GI50 (LOX IMVI melanoma) is on record?
A: 2.33 µM

Q: And the TGI (LOX IMVI melanoma)?
A: 3.8 µM

Q: And the GI50 (NCI-H522 lung)?
A: 1.89 µM

Q: What about the TGI (NCI-H522 lung) of the same compound?
A: 3.29 µM

Q: What about the GI50 (NCI/ADR-RES ovarian) of the same compound?
A: 2.4 µM

Q: And the TGI (NCI/ADR-RES ovarian)?
A: 5.2 µM

Q: And the GI50 ([…]-0 renal)?
A: 1.73 µM

Q: What about the TGI (786-0 renal) of the same compound?
A: 3.12 µM

Q: And the GI50 (HT29 colon)?
A: 1.66 µM

Q: And the TGI (HT29 colon)?
A: 3.04 µM

Q: What about the GI50 (SR leukemia) of the same compound?
A: 1.17 µM

Q: And the TGI (SR leukemia)?
A: 2.41 µM

Q: What about the GI50 (SF-295 CNS) of the same compound?
A: 1.86 µM

Q: And the TGI (SF-295 CNS)?
A: 3.27 µM

Q: And the GI50 (OVCAR-5 ovarian)?
A: 2.03 µM

Q: And the TGI (OVCAR-5 ovarian)?
A: 3.47 µM

Q: What about the GI50 (SW-620 colon) of the same compound?
A: 1.74 µM

Q: And the TGI (SW-620 colon)?
A: 3.14 µM

Q: And the GI50 (M14 melanoma)?
A: 1.79 µM

Q: What about the TGI (M14 melanoma) of the same compound?
A: 3.18 µM

Q: And the GI50 (T-47D breast)?
A: 1.61 µM

Q: And the TGI (T-47D breast)?
A: 2.97 µM

Q: What about the GI50 (HCT-15 colon) of the same compound?
A: 1.86 µM

Q: What about the TGI (HCT-15 colon) of the same compound?
A: 3.28 µM

Q: What about the GI50 (SF-539 CNS) of the same compound?
A: 1.66 µM

Q: And the TGI (SF-539 CNS)?
A: 3.03 µM

Q: And the GI50 (NCI-H460 NSCLC)?
A: 1.7 µM

Q: And the TGI (NCI-H460 NSCLC)?
A: 3.12 µM

Q: And the GI50 (A498 renal)?
A: 1.7 µM

Q: And the TGI (A498 renal)?
A: 3.08 µM

Q: What about the GI50 (HL-60(TB) leukemia) of the same compound?
A: 1.79 µM

Q: What about the TGI (HL-60(TB) leukemia) of the same compound?
A: 3.18 µM

Q: What about the GI50 (MOLT-4 leukemia) of the same compound?
A: 1.16 µM

Q: What about the TGI (MOLT-4 leukemia) of the same compound?
A: 2.41 µM

Q: And the GI50 (SK-OV-3 ovarian)?
A: 1.68 µM

Q: And the TGI (SK-OV-3 ovarian)?
A: 3.06 µM

Q: What about the GI50 (K-562 leukemia) of the same compound?
A: 1.5 µM

Q: And the TGI (K-562 leukemia)?
A: 2.83 µM

Q: And the GI50 (MCF7 breast)?
A: 1.61 µM

Q: And the TGI (MCF7 breast)?
A: 2.98 µM

Q: And the GI50 (CAKI-1 renal)?
A: 1.84 µM

Q: What about the TGI (CAKI-1 renal) of the same compound?
A: 3.24 µM

Q: And the GI50 (KM12 colon)?
A: 1.8 µM

Q: And the TGI (KM12 colon)?
A: 3.21 µM

Q: What about the GI50 (IGROV1 ovarian) of the same compound?
A: 1.65 µM

Q: What about the TGI (IGROV1 ovarian) of the same compound?
A: 3.02 µM

Q: And the GI50 (HOP-92 NSCLC)?
A: 1.63 µM

Q: What about the TGI (HOP-92 NSCLC) of the same compound?
A: 2.99 µM

Q: And the GI50 (OVCAR-4 ovarian)?
A: 1.51 µM

Q: And the TGI (OVCAR-4 ovarian)?
A: 2.85 µM

Q: What about the GI50 (HCC-2998 colon) of the same compound?
A: 1.36 µM

Q: What about the TGI (HCC-2998 colon) of the same compound?
A: 2.65 µM

Q: What about the GI50 (OVCAR-8 ovarian) of the same compound?
A: 1.81 µM

Q: And the TGI (OVCAR-8 ovarian)?
A: 3.22 µM

Q: What about the GI50 (PC-3 prostate) of the same compound?
A: 1.83 µM

Q: What about the TGI (PC-3 prostate) of the same compound?
A: 3.25 µM

Q: And the GI50 (MDA-MB-468 breast)?
A: 1.97 µM

Q: And the TGI (MDA-MB-468 breast)?
A: 3.39 µM

Q: What about the GI50 (SN12C renal) of the same compound?
A: 1.82 µM

Q: And the TGI (SN12C renal)?
A: 3.22 µM

Q: What about the GI50 (ACHN renal) of the same compound?
A: 1.84 µM

Q: And the TGI (ACHN renal)?
A: 3.25 µM

Q: And the GI50 (UACC-257 melanoma)?
A: 1.27 µM

Q: And the TGI (UACC-257 melanoma)?
A: 2.53 µM

Q: And the GI50 (MDA-MB-231 breast)?
A: 1.89 µM

Q: What about the TGI (MDA-MB-231 breast) of the same compound?
A: 3.3 µM

Q: What about the GI50 (SK-MEL-5 melanoma) of the same compound?
A: 1.82 µM

Q: And the TGI (SK-MEL-5 melanoma)?
A: 3.22 µM

Q: What about the GI50 (CCRF-CEM leukemia) of the same compound?
A: 1.26 µM

Q: And the TGI (CCRF-CEM leukemia)?
A: 2.52 µM

Q: And the GI50 (NCI-H322M lung)?
A: 1.69 µM

Q: What about the TGI (NCI-H322M lung) of the same compound?
A: 3.06 µM

Q: What about the GI50 (DU-145 prostate) of the same compound?
A: 1.86 µM

Q: What about the TGI (DU-145 prostate) of the same compound?
A: 3.28 µM

Q: What about the GI50 (U251 glioblastoma) of the same compound?
A: 1.59 µM

Q: What about the TGI (U251 glioblastoma) of the same compound?
A: 2.96 µM

Q: And the GI50 (COLO 205 colon)?
A: 1.82 µM

Q: What about the TGI (COLO 205 colon) of the same compound?
A: 3.23 µM

Q: What about the GI50 (MDA-MB-435 melanoma) of the same compound?
A: 2 µM

Q: What about the TGI (MDA-MB-435 melanoma) of the same compound?
A: 3.43 µM

Q: What about the GI50 (UO-31 renal) of the same compound?
A: 1.87 µM

Q: What about the TGI (UO-31 renal) of the same compound?
A: 3.27 µM

Q: What about the GI50 (RPMI-8226 leukemia) of the same compound?
A: 0.971 µM

Q: And the TGI (RPMI-8226 leukemia)?
A: 2.14 µM

Q: And the GI50 (SNB-19 CNS)?
A: 1.97 µM

Q: And the TGI (SNB-19 CNS)?
A: 3.4 µM

Q: And the GI50 (SK-MEL-2 melanoma)?
A: 1.51 µM

Q: What about the TGI (SK-MEL-2 melanoma) of the same compound?
A: 2.84 µM

Q: And the GI50 (A549 NSCLC)?
A: 1.84 µM

Q: What about the TGI (A549 NSCLC) of the same compound?
A: 3.26 µM

Q: And the GI50 (MALME-3M melanoma)?
A: 1.79 µM

Q: And the TGI (MALME-3M melanoma)?
A: 3.18 µM

Q: And the GI50 (SK-MEL-28 melanoma)?
A: 1.83 µM

Q: And the TGI (SK-MEL-28 melanoma)?
A: 3.23 µM

Q: And the GI50 (HCT-116 colon)?
A: 1.45 µM

Q: What about the TGI (HCT-116 colon) of the same compound?
A: 2.78 µM

Q: What about the GI50 (OVCAR-3 ovarian) of the same compound?
A: 1.81 µM

Q: And the TGI (OVCAR-3 ovarian)?
A: 3.22 µM

Q: What about the GI50 (TK-10 renal) of the same compound?
A: 1.85 µM

Q: And the TGI (TK-10 renal)?
A: 3.25 µM

Q: And the GI50 (NCI-H226 lung)?
A: 1.77 µM

Q: And the TGI (NCI-H226 lung)?
A: 3.16 µM

Q: And the GI50 (HOP-62 NSCLC)?
A: 2.02 µM

Q: And the TGI (HOP-62 NSCLC)?
A: 3.46 µM

Q: What about the GI50 (NCI-H23 lung) of the same compound?
A: 2.23 µM

Q: And the TGI (NCI-H23 lung)?
A: 3.68 µM

Q: And the GI50 (BT-549 breast)?
A: 1.7 µM

Q: And the TGI (BT-549 breast)?
A: 3.08 µM

Q: And the GI50 (UACC-62 melanoma)?
A: 1.89 µM

Q: And the TGI (UACC-62 melanoma)?
A: 3.3 µM

Q: And the GI50 (RXF 393 renal)?
A: 1.58 µM

Q: And the TGI (RXF 393 renal)?
A: 2.92 µM

Q: And the GI50 (SF-268 CNS)?
A: 1.8 µM

Q: And the TGI (SF-268 CNS)?
A: 3.2 µM
